# Legend:
# Format in all cases: in vivo
# [1] = test system: barnyardgrass (Echinochloa crus-galli L.); assay: Test Example 1: foliar treatment, upland pot test, barnyardgrass; conditions: 31 g/ha active ingredient, observed 17th to 25th day after application
# [2] = test system: crabgrass (Digitaria sanguinalis L.); assay: Test Example 1: foliar treatment, upland pot test, crabgrass; conditions: 31 g/ha active ingredient, observed 17th to 25th day after application
# [3] = test system: green foxtail (Setaria viridis L.); assay: Test Example 1: foliar treatment, upland pot test, green foxtail; conditions: 31 g/ha active ingredient, observed 17th to 25th day after application
# [4] = test system: redroot pigweed (Amaranthus retroflexus L.); assay: Test Example 1: foliar treatment, upland pot test, redroot pigweed; conditions: 31 g/ha active ingredient, observed 17th to 25th day after application
# Summary of the method: (§1)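 Upland soil pots, sown; foliar spray at pigweed cotyledon–2.0 leaf, velvetleaf 0.1–1.5 leaf, rice 1.0–3.0 leaf, wheat 1.7–3.4 leaf. WP/EC formulations, prescribed a.i. rate, 500 L/ha spray volume + 0.1 vol % spreader. Visual % inhibition, d17–25.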
# [5] = test system: prickly sida (Sida spinosa L.); assay: Test Example 1: foliar treatment, upland pot test, prickly sida; conditions: 31 g/ha active ingredient, observed 17th to 25th day after application
# [6] = test system: velvetleaf (Abutilon theophrasti MEDIC.); assay: Test Example 1: foliar treatment, upland pot test, velvetleaf; conditions: 31 g/ha active ingredient, observed 17th to 25th day after application
# Summary of the method: as §1
# [7] = test system: rice (Oryza sativa L.); assay: Test Example 1: foliar treatment, upland pot test, rice; conditions: 31 g/ha active ingredient, observed 17th to 25th day after application
# Summary of the method: as §1
# [8] = test system: wheat (Triticum spp.); assay: Test Example 1: foliar treatment, upland pot test, wheat; conditions: 31 g/ha active ingredient, observed 17th to 25th day after application
# Summary of the method: as §1
# [9] = test system: corn (Zea mays L.); assay: Test Example 1: foliar treatment, upland pot test, corn; conditions: 31 g/ha active ingredient, observed 17th to 25th day after application
# [10] = test system: soybean (Glycine max Merr.); assay: Test Example 1: foliar treatment, upland pot test, soybean; conditions: 31 g/ha active ingredient, observed 17th to 25th day after application
# [11] = test system: crabgrass (Digitaria sanquinalis L.); assay: Test Example 2: soil application on the day after sowing, crabgrass; conditions: 250 g/ha active ingredient, observed 19th to 28th day after application
# Summary of the method: (§2)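 Pre-emergence soil spray on the day after sowing in upland soil pots, formulated compounds diluted in water equivalent to 500 liter per hectare at prescribed active-ingredient rates. Growth inhibition (0–100%, 100 = complete kill) scored visually 19th to 28th day after application.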
# [12] = test system: redroot pigweed (Amaranthus retroflexus L.); assay: Test Example 2: soil application on the day after sowing, redroot pigweed; conditions: 250 g/ha active ingredient, observed 19th to 28th day after application
# Summary of the method: as §2
# [13] = test system: velvetleaf (Abutilon theophrasti MEDIC.); assay: Test Example 2: soil application on the day after sowing, velvetleaf; conditions: 250 g/ha active ingredient, observed 19th to 28th day after application
# Summary of the method: as §2
# [14] = test system: corn (Zea mays L.); assay: Test Example 2: soil application on the day after sowing, corn; conditions: 250 g/ha active ingredient, observed 19th to 28th day after application
# Summary of the method: as §2
# [15] = test system: green foxtail (Setaria viridis L.); assay: Test Example 3: foliar treatment at later leaf stage, green foxtail; conditions: 4.0 to 4.5 leaf stage, MSO Concentrate 0.5 vol %, 300 L/ha
# Description: (§3) Upland field soil was put into a 1/1,000,000 hectare pot, and seeds of various plants were sown. When the respective plants reached predetermined leaf stage ((1) green foxtail (Setaria viridis L.): 4.0 to 4.5 leaf stage, (2) guineagrass (Panicum maximum Jacq.): 3.5 to 4.3 leaf stage, and (3) corn (Zea mays L.): 4.0 to 4.3 leaf stage, wettable powders or emulsifiable concentrates of compounds of the above formula (I), prepared in accordance with a conventional preparation method, were weighed so that the active ingredients became the prescribed amounts, and diluted with water in an amount corresponding to 300 or 500 liter per 1 hectare (containing of an agricultural spreader (MSO concentrate, manufactured by Cognis Corporation or “KUSARINOH”, manufactured by NIHON NOHYAKU CO., LTD.). The spray solutions thus prepared were applied for foliar treatment by a small sprayer.
# (§4) On the 18th to 24th day after application, the state of growth of the respective plants was visually observed, and the herbicidal effect was evaluated by a growth inhibition rate (%) of 0 (equivalent to the non-treated area) to 100% (complete kill).
# [16] = test system: guineagrass (Panicum maximum Jacq.); assay: Test Example 3: foliar treatment at later leaf stage, guineagrass; conditions: 3.5 to 4.3 leaf stage, KUSARINOH 0.1 vol %, 500 L/ha
# Description: as §3, §4
# [17] = test system: corn (Zea mays L.); assay: Test Example 3: foliar treatment at later leaf stage, corn; conditions: 4.0 to 4.3 leaf stage, MSO Concentrate 0.5 vol %, 300 L/ha
# Description: as §3, §4
# [18] = test system: barnyardgrass (Echinochloa crus-galli L.); assay: Test Example 2: soil application on the day after sowing, barnyardgrass; conditions: 250 g/ha active ingredient, observed 19th to 28th day after application
# Summary of the method: as §2
# [19] = test system: green foxtail (Setaria viridis L.); assay: Test Example 2: soil application on the day after sowing, green foxtail; conditions: 250 g/ha active ingredient, observed 19th to 28th day after application
# Summary of the method: as §2
# [20] = test system: prickly sida (Sida spinosa L.); assay: Test Example 2: soil application on the day after sowing, prickly sida; conditions: 250 g/ha active ingredient, observed 19th to 28th day after application
# Summary of the method: as §2
# [21] = test system: rice (Oryza sativa L.); assay: Test Example 2: soil application on the day after sowing, rice; conditions: 250 g/ha active ingredient, observed 19th to 28th day after application
# Summary of the method: as §2
# [22] = test system: wheat (Triticum spp.); assay: Test Example 2: soil application on the day after sowing, wheat; conditions: 250 g/ha active ingredient, observed 19th to 28th day after application
# Summary of the method: as §2
# [23] = test system: soybean (Glycine max Merr.); assay: Test Example 2: soil application on the day after sowing, soybean; conditions: 250 g/ha active ingredient, observed 19th to 28th day after application
# Summary of the method: as §2
# [24] = Amaranthus retroflexus, read-out: Growth inhibition rate (%) Redroot pigweed
# [25] = Abutilon theophrasti, read-out: Growth inhibition rate (%) Velvetleaf
# [26] = Zea mays, read-out: Growth inhibition rate (%) Corn
Compound,Growth inhibition rate (%) Barnyardgrass [1] [%],Growth inhibition rate (%) Crabgrass [2] [%],Growth inhibition rate (%) Green foxtail [3] [%],Growth inhibition rate (%) Redroot pigweed [4] [%],Growth inhibition rate (%) Prickly sida [5] [%],Growth inhibition rate (%) Velvetleaf [6] [%],Growth inhibition rate (%) Rice [7] [%],Growth inhibition rate (%) Wheat [8] [%],Growth inhibition rate (%) Corn [9] [%],Growth inhibition rate (%) Soybean [10] [%],Growth inhibition rate (%) Barnyardgrass [18] [%],Growth inhibition rate (%) Crabgrass [11] [%],Growth inhibition rate (%) Green foxtail [19] [%],Growth inhibition rate (%) Redroot pigweed [12] [%],Growth inhibition rate (%) Prickly sida [20] [%],Growth inhibition rate (%) Velvetleaf [13] [%],Growth inhibition rate (%) Rice [21] [%],Growth inhibition rate (%) Wheat [22] [%],Growth inhibition rate (%) Corn [14] [%],Growth inhibition rate (%) Soybean [23] [%],also measured
"COCCOc1c(S(C)(=O)=O)ccc(C(=O)c2cnn(C)c2O)c1C [Compound No. 151, 5-hydroxy-1-methylpyrazol-4-yl 3-(2-methoxyethoxy)-2-methyl-4-(methylsulfonyl)phenyl ketone]",,,,,,,,,,,,,,,,,,,,,"inhibition at 31 g/ha ([1]; Echinochloa crus-galli, read-out: Growth inhibition rate (%) Barnyardgrass): 100%; inhibition at 31 g/ha ([2]; Digitaria sanguinalis, read-out: Growth inhibition rate (%) Crabgrass): 100%; inhibition at 31 g/ha ([3]; Setaria viridis, read-out: Growth inhibition rate (%) Green foxtail): 100%; inhibition at 31 g/ha [4, 24]: 100%; inhibition at 31 g/ha ([5]; Sida spinosa, read-out: Growth inhibition rate (%) Prickly sida): 80%; inhibition at 31 g/ha [6, 25]: 98%; inhibition at 31 g/ha ([7]; Oryza sativa, read-out: Growth inhibition rate (%) Rice): 60%; inhibition at 31 g/ha ([8]; Triticum, read-out: Growth inhibition rate (%) Wheat): 10%; inhibition at 31 g/ha [9, 26]: 30%; inhibition at 31 g/ha ([10]; Glycine max, read-out: Growth inhibition rate (%) Soybean): 95%; inhibition at 250 g/ha ([11]; Digitaria, read-out: Growth inhibition rate (%) Crabgrass): 100%; inhibition at 250 g/ha [12, 24]: 100%; inhibition at 250 g/ha [13, 25]: 70%; inhibition at 250 g/ha [14, 26]: 0%; inhibition at 7 g/ha ([15]; Setaria viridis, 7 g/ha, read-out: Growth inhibition rate (%) (24th day after application) Green foxtail): 97%; inhibition at 15 g/ha ([15]; Setaria viridis, 15 g/ha, read-out: Growth inhibition rate (%) (24th day after application) Green foxtail): 100%; inhibition at 31 g/ha ([16]; Megathyrsus maximus, read-out: Growth inhibition rate (%) (18th day after application) Guineagrass): 93%; inhibition at 120 g/ha ([17]; Zea mays, read-out: Growth inhibition rate (%) (21st day after application) Corn): 2%"
CCn1ncc(C(=O)c2ccc(S(C)(=O)=O)c(OCCOC)c2C)c1O [compound 131],100,100,100,100,70,100,70,30,10,100,100,100,100,100,30,90,100,40,30,40,Growth inhibition rate (%) (24th day after application) Green foxtail ([15]; 7 g/ha): 98%; Growth inhibition rate (%) (24th day after application) Green foxtail ([15]; 15 g/ha): 100%; Growth inhibition rate (%) (18th day after application) Guineagrass ([16]; 31 g/ha): 93%; Growth inhibition rate (%) (21st day after application) Corn ([17]; 120 g/ha): 0%
COCCOc1c(S(C)(=O)=O)ccc(C(=O)c2cnn(C(C)C)c2O)c1C [compound 258],100,100,100,95,50,98,95,0,10,90,100,100,100,100,40,100,80,0,0,0,Growth inhibition rate (%) (24th day after application) Green foxtail ([15]; 7 g/ha): 95%; Growth inhibition rate (%) (24th day after application) Green foxtail ([15]; 15 g/ha): 100%
